Test results as given in ChEMBL document CHEMBL5036317, “Identification of Unique Quinazolone Thiazoles as Novel Structural Scaffolds for Potential Gram-Negative Bacterial Conquerors” (J Med Chem, 2021).
Converted amounts (≈) assume the structure as drawn.

Legend:
[1] = system: Klebsiella pneumoniae; test: Antibacterial activity against Klebsiella pneumoniae assessed as inhibition of bacterial growth measured after 24 hrs by two-fold serial dilution method; assay type: functional
[2] = system: Escherichia coli; test: Antibacterial activity against Escherichia coli ATCC 25922 assessed as inhibition of bacterial growth measured after 24 hrs by two-fold serial dilution method; assay type: functional
[3] = system: Staphylococcus aureus; test: Antibacterial activity against Staphylococcus aureus assessed as inhibition of bacterial growth measured after 24 hrs by two-fold serial dilution method; assay type: functional
[4] = Haemolytic activity in human erythrocytes incubated for 2 hrs; assay type: ADME, cell-based, Erythrocyte
[5] = system: Staphylococcus aureus; test: Antibacterial activity against Staphylococcus aureus ATCC 29213 assessed as inhibition of bacterial growth measured after 24 hrs by two-fold serial dilution method; assay type: functional
[6] = system: Pseudomonas aeruginosa; test: Antibacterial activity against Pseudomonas aeruginosa ATCC 27853 assessed as inhibition of bacterial growth measured after 24 hrs by two-fold serial dilution method; assay type: functional
[7] = system: Pseudomonas aeruginosa; test: Antibacterial activity against Pseudomonas aeruginosa assessed as inhibition of bacterial growth measured after 24 hrs by two-fold serial dilution method; assay type: functional
[8] = system: Staphylococcus aureus; test: Antibacterial activity against Staphylococcus aureus ATCC 25923 assessed as inhibition of bacterial growth measured after 24 hrs by two-fold serial dilution method; assay type: functional
[9] = system: Escherichia coli; test: Antibacterial activity against Escherichia coli assessed as inhibition of bacterial growth measured after 24 hrs by two-fold serial dilution method; assay type: functional
[10] = system: Enterococcus faecalis; test: Antibacterial activity against Enterococcus faecalis assessed as inhibition of bacterial growth measured after 24 hrs by two-fold serial dilution method; assay type: functional
[11] = system: Acinetobacter baumannii; test: Antibacterial activity against Acinetobacter baumanii assessed as inhibition of bacterial growth measured after 24 hrs by two-fold serial dilution method; assay type: functional
[12] = system: Staphylococcus aureus; test: Antibacterial activity against methicillin-resistant Staphylococcus aureus assessed as inhibition of bacterial growth measured after 24 hrs by two-fold serial dilution method; assay type: functional

## Cc1ccc2c(/C=C(/C(=O)c3nccs3)n3cnc4cc(Cl)ccc4c3=O)c[nH]c2c1
[1]
  MIC: 64 µg/mL (≈ 143 µM)
[2]
  MIC: 16 µg/mL (≈ 35.8 µM)
[3]
  MIC: 512 µg/mL (≈ 1150 µM)
[4]
  HC50 at 2 h: > 250 µg/mL
[5]
  MIC: 32 µg/mL (≈ 71.6 µM)
[6]
  MIC: 8 µg/mL (≈ 17.9 µM)
[7]
  MIC: 64 µg/mL (≈ 143 µM)
[8]
  MIC: 32 µg/mL (≈ 71.6 µM)
[9]
  MIC: 128 µg/mL (≈ 286 µM)
[10]
  MIC: 64 µg/mL (≈ 143 µM)
[11]
  MIC: 8 µg/mL (≈ 17.9 µM)
[12]
  MIC: 32 µg/mL (≈ 71.6 µM)

## CCn1cc(/C=C(/C(=O)c2nccs2)n2cnc3cc(Cl)ccc3c2=O)c2ccccc21
[1]
  MIC: 512 µg/mL (≈ 1110 µM)
[2]
  MIC: 512 µg/mL (≈ 1110 µM)
[3]
  MIC: 512 µg/mL (≈ 1110 µM)
[4]
  HC50 at 2 h: > 250 µg/mL
[5]
  MIC: 1 µg/mL (≈ 2.17 µM)
[6]
  MIC: 32 µg/mL (≈ 69.4 µM)
[7]
  MIC: 128 µg/mL (≈ 278 µM)
[8]
  MIC: 512 µg/mL (≈ 1110 µM)
[9]
  MIC: 512 µg/mL (≈ 1110 µM)
[10]
  MIC: 512 µg/mL (≈ 1110 µM)
[11]
  MIC: 128 µg/mL (≈ 278 µM)
[12]
  MIC: 512 µg/mL (≈ 1110 µM)

## O=C(/C(=C/c1ccc(F)cc1F)n1cnc2cc(Cl)ccc2c1=O)c1nccs1
[1]
  MIC: 8 µg/mL (≈ 18.6 µM)
[2]
  MIC: 2 µg/mL (≈ 4.65 µM)
[3]
  MIC: 8 µg/mL (≈ 18.6 µM)
[4]
  HC50 at 2 h: 203 µg/mL
[5]
  MIC: 8 µg/mL (≈ 18.6 µM)
[6]
  MIC: 4 µg/mL (≈ 9.31 µM)
[7]
  MIC: 8 µg/mL (≈ 18.6 µM)
[8]
  MIC: 2 µg/mL (≈ 4.65 µM)
[9]
  MIC: 8 µg/mL (≈ 18.6 µM)
[10]
  MIC: 8 µg/mL (≈ 18.6 µM)
[11]
  MIC: 2 µg/mL (≈ 4.65 µM)
[12]
  MIC: 8 µg/mL (≈ 18.6 µM)

## O=C(/C(=C/c1ccc(C(F)(F)F)cc1)n1cnc2cc(F)ccc2c1=O)c1nccs1
[1]
  MIC: 2 µg/mL (≈ 4.49 µM)
[2]
  MIC: 4 µg/mL (≈ 8.98 µM)
[3]
  MIC: 16 µg/mL (≈ 35.9 µM)
[4]
  HC50 at 2 h: > 250 µg/mL
[5]
  MIC: 4 µg/mL (≈ 8.98 µM)
[6]
  MIC: 4 µg/mL (≈ 8.98 µM)
[7]
  MIC: 16 µg/mL (≈ 35.9 µM)
[8]
  MIC: 2 µg/mL (≈ 4.49 µM)
[9]
  MIC: 8 µg/mL (≈ 18 µM)
[10]
  MIC: 4 µg/mL (≈ 8.98 µM)
[11]
  MIC: 1 µg/mL (≈ 2.25 µM)
[12]
  MIC: 8 µg/mL (≈ 18 µM)

## O=C(/C(=C/c1ccccc1Cl)n1cnc2cc(Cl)ccc2c1=O)c1nccs1
[1]
  MIC: 4 µg/mL (≈ 9.34 µM)
[2]
  MIC: 2 µg/mL (≈ 4.67 µM)
[3]
  MIC: 16 µg/mL (≈ 37.4 µM)
[4]
  HC50 at 2 h: 195 µg/mL
[5]
  MIC: 4 µg/mL (≈ 9.34 µM)
[6]
  MIC: 2 µg/mL (≈ 4.67 µM)
[7]
  MIC: 2 µg/mL (≈ 4.67 µM)
[8]
  MIC: 1 µg/mL (≈ 2.33 µM)
[9]
  MIC: 8 µg/mL (≈ 18.7 µM)
[10]
  MIC: 1 µg/mL (≈ 2.33 µM)
[11]
  MIC: 512 µg/mL (≈ 1200 µM)
[12]
  MIC: 2 µg/mL (≈ 4.67 µM)

## CN(C)/C=C(/C(=O)c1nccs1)n1cnc2cc(Cl)ccc2c1=O
[1]
  MIC: 128 µg/mL (≈ 355 µM)
[2]
  MIC: 16 µg/mL (≈ 44.3 µM)
[3]
  MIC: 512 µg/mL (≈ 1420 µM)
[4]
  HC50 at 2 h: 204 µg/mL
[5]
  MIC: 512 µg/mL (≈ 1420 µM)
[6]
  MIC: 16 µg/mL (≈ 44.3 µM)
[7]
  MIC: 16 µg/mL (≈ 44.3 µM)
[8]
  MIC: 256 µg/mL (≈ 709 µM)
[9]
  MIC: 512 µg/mL (≈ 1420 µM)
[10]
  MIC: 128 µg/mL (≈ 355 µM)
[11]
  MIC: 128 µg/mL (≈ 355 µM)
[12]
  MIC: 512 µg/mL (≈ 1420 µM)
